Like-named read-outs stand apart in the source and are kept apart here. Ends that are not written are not given here.

Assay [1] has as its target T1, DRB1*1501 (DR2w2b) (Homo sapiens, UniProt P01903+P01911).
T1 construct: expressed in transfected cells; host or cells: L466.1 transfected fibroblasts
Kind of assay: Class II peptide-binding assay, DR2w2b (DR2w2B1). As to conditions: Table VIII, values in parentheses read as lower bounds.
Description: (§1) Class II peptide-binding assays. […] These assays were chosen as to be representative of the most common DR alleles.
In appropriate stoichiometric conditions, the IC50 of an unlabeled test peptide to the purified DR is a reasonable approximation of the affinity of interaction (Kd). Peptides were tested in two to four completely independent experiments. […] Final detergent concentration in the incubation mixture was 0.05% Nonidet P-40. Assays were performed at pH 7.0 with the exception of DR3, which was performed at pH 4.5, and DRw53, which was performed at pH 5.0.
(§2) All subsequent inhibition and direct binding assays were the performed using these class II concentrations.

Assay [2] addresses T2, DRB1*0101 (DR1) (Homo sapiens, UniProt P01903+P01911, A100R/D57E/F55L/F60I/F76Y/I96L/L162R/M171V/P40L/Q125E/R42F/V115G/Y59C).
T2 construct: used as sources of human HLA class II molecules; endogenous in cells; host or cells: LG2 (EBV-transformed homozygous B cell line)
Kind of assay: Class II peptide-binding assay, DR1.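 Note: competition assay: unlabeled test peptides inhibit binding of a radiolabeled probe peptide to purified DR, with half-maximal inhibition taken as an approximate dissociation constant Kd.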

The target in assay [3] is T3, DRB5*0101 (DR2w2a) (Homo sapiens, UniProt P01903+Q30154).
T3 construct: used as sources of human HLA class II molecules; endogenous in cells; host or cells: GM3107 (EBV-transformed homozygous B cell line)
Description: Class II peptide-binding assay, DR2w2a (DR2w2B2).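 Note: competitive binding assay: unlabeled peptide inhibiting binding of a radiolabeled probe peptide to purified DR molecules at pH 7.0, IC50 approximating Kd, lower means stronger binding.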 Conditions: read-out: In IC50 Format DR2w2B2 nM; Table VIII; values in parentheses read as lower bounds.
Description: as §1
(§3) Radiolabeled peptides were iodinated using the chloramine-T method. […] In appropriate stoichiometric conditions, the IC50 of an unlabeled test peptide to the purified DR is a reasonable approximation of the affinity of interaction (Kd). Peptides were tested in two to four completely independent experiments. […] Final detergent concentration in the incubation mixture was 0.05% Nonidet P-40. Assays were performed at pH 7.0 with the exception of DR3, which was performed at pH 4.5, and DRw53, which was performed at pH 5.0.
as §2

For assay [4], the target named is T4, DRB1*0802 (DR8w2) (Homo sapiens, UniProt P01903+P01911, A100R/A103L/A169T/F76Y/H45Y/I96F/K41T/L162R/M171V/P40S/Q125H/Q178H/Q39Y/Q99D/R218S/R42G/S66Y/V115G/W38E).
T4 construct: used as sources of human HLA class II molecules; endogenous in cells; host or cells: OLL (EBV-transformed homozygous B cell line)
Description: Class II peptide-binding assay, DR8w2.
Description: as §1, §3, §2
DR8w2 and DR8w3. The β1 specificity of the DR8w2 and DR8w3 assays is obvious in that no β3 (and/or B4 and β5) molecule is expressed.

Assay [5] has as its target DRB1*1302 (DR6w19) (Homo sapiens, UniProt P01903+P01911, A100E/A169T/K41T/L162R/M171V/P40S/Q125H/Q178H/Q39Y/Q99D/R42S/S66N/T262R/V115G/W38E/Y61H). It is filed as binding.
Assay [6] deals with DRB1*0701 (DR7) (Homo sapiens, UniProt P01903+P01911, A100R/A102G/A103Q/D57E/D86V/E43K/F76Y/K127E/L162R/M171V/P40G/Q125H/Q99D/R33Q/R42Y/R54Q/S133A/S66F/T210M/V115G/Y107V/Y59L/Y89S). Description: Class II peptide-binding assay, DR7.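 Note: unlabeled peptides compete with an iodinated probe peptide for binding to affinity-purified HLA-DR at neutral pH, DR amount titered to bind a small tracer fraction, IC50 approximating Kd.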
For assay [7], the target named is T5, DRB1*1101 (DR5w11) (Homo sapiens, UniProt P01903+P01911, A100R/A169T/A87E/I96F/K41T/L162R/M171V/P40S/Q125H/Q178H/Q39Y/Q99D/R42S/S66Y/T262R/V115G/W38E).
T5 construct: used as sources of human HLA class II molecules; endogenous in cells; host or cells: SWEIG (EBV-transformed homozygous B cell line)
Kind of assay: Class II peptide-binding assay, DR5w11.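 Note: competition by unlabeled test peptide against iodinated probe peptide binding to affinity-purified HLA-DR, class II amount titrated beforehand, half-maximal inhibitory concentration read as approximate Kd.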
Description: as §1, §3, §2

The target in assay [8] is DRB1*0405 (DR4w15) (Homo sapiens, UniProt P01903+P01911, A100R/A169T/D86S/F76Y/I96L/K127E/L162R/M171V/N62H/P40V/Q125Y/R42H/S133A/S149N/S66Y/V115G/V209L/W38E). Description: Class II peptide-binding assay, DR4w15.
Description: as §1, §3, §2
DR4w15. The β4 product DRw53 is co-expressed with DR4w15 and the determination of the specificity of the DR4w1 binding assay is complicated in that the same radiolabeled ligand is used for both the DR4w15 and DRw53 binding assays.
The test system of assay [9] is panel of purified HLA DR molecules. It is filed as binding, human.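 Note: competitive inhibition of radiolabeled probe peptide binding to purified HLA DR molecules, with inhibitory potency of unlabeled peptides taken as an approximation of affinity.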
Description: as §1, §3, §2
Assay [10] deals with T6, DRB1*0401 (DR4w4) (Homo sapiens, UniProt P01903+P01911, A100K/A169T/F76Y/I96L/K127E/L162R/M171V/N62H/P40V/Q125Y/R42H/S133A/S149N/S66Y/V115G/V209L/W38E).
T6 construct: used as sources of human HLA class II molecules; endogenous in cells; host or cells: PREISS (EBV-transformed homozygous B cell line)
Description: Class II peptide-binding assay, DR4w4.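 Note: unlabeled test peptides compete with a radiolabeled probe peptide for binding to affinity-purified HLA-DR, with DR amount titrated to capture a small fraction of label, IC50 approximating Kd.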 Conditions: Table V A) Non Predictions; read-out: Binding Capacity DR4w4.

[11] abbreviates: Table V B) Correct Predictions, read-out: Binding Capacity (IC50% nM) DR4w15.

T5 sequence (P01903 26-254, other chains not shown): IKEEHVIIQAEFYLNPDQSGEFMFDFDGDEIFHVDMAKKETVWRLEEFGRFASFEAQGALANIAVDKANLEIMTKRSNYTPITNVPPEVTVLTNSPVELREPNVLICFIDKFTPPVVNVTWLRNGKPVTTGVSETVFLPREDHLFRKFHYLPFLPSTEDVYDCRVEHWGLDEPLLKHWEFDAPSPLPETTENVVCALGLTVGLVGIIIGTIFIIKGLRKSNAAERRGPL
DRB1*1302 (DR6w19), sequence (P01903 26-254, other chains not shown): as above

Consider ARLLDIDETEYHADG [Peptide 39.0366], for which the IC50 is greater than 15.2 µM in assay [1] (read-out: In IC50 Format DR2w2B1 nM); 50000 nM in assay [2] (read-out: In IC50 Format DR1 nM, Table VIII, values in parentheses read as lower bounds); greater than 28.6 µM in [3]; greater than 54.4 µM in [4] (read-out: In IC50 Format DR8w2 nM, Table VIII, values in parentheses read as lower bounds); greater than 35000 nM in assay [5] (read-out: In IC50 Format DR6w19 nM, Table VIII, values in parentheses read as lower bounds); greater than 14700 nM in assay [6] (read-out: In IC50 Format DR7 nM, Table VIII, values in parentheses read as lower bounds). Further, in [7] (read-out: In IC50 Format DR5w11 nM, Table VIII, values in parentheses read as lower bounds), the IC50 is greater than 25000 nM.
`CC[C@H](C)[C@H](N)C(=O)N[C@@H](CCCCN)C(=O)N[C@@H](Cc1c[nH]c2ccccc12)C(=O)N[C@@H](CCSC)C(=O)N[C@@H](C)C(=O)N[C@@H](CC(C)C)C(=O)N[C@@H](CCC(=O)O)C(=O)N[C@@H](CO)C(=O)N[C@H](C(=O)N[C@@H](CC(C)C)C(=O)N[C@@H](CCCNC(=N)N)C(=O)N[C@@H](CCCNC(=N)N)C(=O)N[C@@H](CCCNC(=N)N)C(=O)N[C@@H](Cc1ccccc1)C(=O)N[C@H](C(=O)O)[C@@H](C)O)[C@@H](C)CC` [Peptide 39.0368]: the IC50 in assay [1] (read-out: In IC50 Format DR2w2B1) was 0.0106 µM.
On to RVYQEPQVSPPQRAET [Peptide 1136.59.01a], for which the IC50 is 130 nM in assay [2] (Table V B) Correct Predictions, read-out: Binding Capacity (IC50% nM) DR1) and 3140 nM in [8] (setting [11]). Further, the “Total Alleles Bound” value in assay [9] came to 3.
Take WLFPRFKFVWVTYASW [Peptide 1136.44.01]: the IC50 was 526 nM in assay [2] (Table V A) Non Predictions, read-out: Binding Capacity DR1); 0.78 µM in [10]; 6550 nM in assay [8] (Table V A) Non Predictions, read-out: Binding Capacity DR4w15); 6.36 µM in [4] (Table V A) Non Predictions, read-out: Binding Capacity DR8w2); 4000 nM in assay [7] (Table V A) Non Predictions, read-out: Binding Capacity DR5w11). The “Total Alleles Bound” value in [9] (Table V A) Non Predictions, 12 DR molecules listed) is listed as 2.
Regarding QEIDPLSYNYIPVNSN [Peptide 1136.55], the IC50 in [8] (setting [11]) is 271 nM; in assay [5] (Table V B) Correct Predictions, read-out: Binding Capacity (IC50% nM) DR6w19), 5000 nM; in assay [6] (Table V B) Correct Predictions, read-out: Binding Capacity (IC50% nM) DR7), 2450 nM; in assay [7] (Table V B) Correct Predictions, read-out: Binding Capacity (IC50% nM) DR5w11), 4540 nM. For the same compound, the “Total Alleles Bound” value in assay [9] is 3.

The values above are taken from patent publication EP1388586A2, “Identification of broadly reactive DR restricted epitopes” (priority 1998, dated 1999).
